Results: PubChem BioAssay AID1745844 (Carcinogenic Potency Database (CPDB), 2022)
Several values for one entry are separate records, joined by “and”; a condition that tells them apart may be missing. Identical values can stand only once. Activity calls are given as the source filed them. No rule for the calls is given here.

Test system: rodent lifetime carcinogenesis bioassay, tumor incidence TD50
Test: chronic cancer bioassays in animals – CPDB, compiled studies (AID 1745844)
[1] = mouse, strain ddNi, males, in feed, site: liver, lesion: adenoma-like tumor, dosed 160 weeks, study length 160 weeks

Structure (SMILES): O=C1c2ccccc2CN2C(=O)c3ccccc3CN12
- TD50 (mouse, strain BALB/cLacDp, females, in feed, site: liver, lesion: angioma, dosed 80 weeks, study length 119 weeks): 7130 mg/kg/day
- TD50 (mouse, strain BALB/cLacDp, females, in feed, site: liver, lesion: angiosarcoma, dosed 80 weeks, study length 119 weeks): 852 mg/kg/day
- TD50 (mouse, strain BALB/cLacDp, females, in feed, site: liver, lesion: hepatocellular adenoma, dosed 80 weeks, study length 119 weeks): 1150 mg/kg/day
- TD50 (mouse, strain BALB/cLacDp, females, in feed, site: liver, lesion: hepatocellular carcinoma, dosed 80 weeks, study length 119 weeks): 3540 mg/kg/day
- TD50 (mouse, strain BALB/cLacDp, females, in feed, site: lung, lesion: several types, types named in the paper, dosed 80 weeks, study length 119 weeks): 269 mg/kg/day (inactive)
- TD50 (mouse, strain BALB/cLacDp, males, in feed, site: liver, lesion: angioma, dosed 80 weeks, study length 119 weeks): 1370 mg/kg/day
- TD50 (mouse, strain BALB/cLacDp, males, in feed, site: liver, lesion: angiosarcoma, dosed 80 weeks, study length 119 weeks): 879 mg/kg/day
- TD50 (mouse, strain BALB/cLacDp, males, in feed, site: lung, lesion: several types, types named in the paper, dosed 80 weeks, study length 119 weeks): 412 mg/kg/day (inactive)

Structure (SMILES): CCCCCCCCCCCC[N+](C)(C)[O-]
- carcinogen call (rat, strain Fischer 344, females, in drinking water, site: liver, lesion: neoplastic nodule, dosed 93 weeks, study length 128 weeks): negative (inactive)
- TD50 (rat, strain Fischer 344, males, in drinking water, site: liver, lesion: hepatocellular carcinoma, dosed 93 weeks, study length 128 weeks): 519 mg/kg/day (inactive)
- TD50 (rat, strain Fischer 344, males, in drinking water, site: liver, lesion: neoplastic nodule, dosed 93 weeks, study length 128 weeks): 496 mg/kg/day (inactive)
- TD50 (rat, strain Fischer 344, males, in drinking water, site: liver, lesion: several types, types named in the paper, dosed 93 weeks, study length 128 weeks): 231 mg/kg/day (inactive)

Structure (SMILES): C=CC=O
- carcinogen call (mouse, strain Charles River CD1, females, by gavage, site: liver, lesion: hepatocellular adenoma, dosed 78 weeks, study length 78 weeks): negative (inactive)
- carcinogen call (mouse, strain Charles River CD1, females, by gavage, site: lung, lesion: alveolar/bronchiolar adenoma, dosed 78 weeks, study length 78 weeks): negative (inactive)
- TD50 (mouse, strain Charles River CD1, females, by gavage, site: lung, lesion: alveolar/bronchiolar carcinoma, dosed 78 weeks, study length 78 weeks): 90.3 mg/kg/day (inactive)
- carcinogen call (mouse, strain Charles River CD1, males, by gavage, site: liver, lesion: hepatocellular adenoma, dosed 78 weeks, study length 78 weeks): negative (inactive)
- carcinogen call (mouse, strain Charles River CD1, males, by gavage, site: liver, lesion: hepatocellular carcinoma, dosed 78 weeks, study length 78 weeks): negative (inactive)
- TD50 (mouse, strain Charles River CD1, males, by gavage, site: lung, lesion: alveolar/bronchiolar adenoma, dosed 78 weeks, study length 78 weeks): 526 mg/kg/day (inactive)
- TD50 (mouse, strain Charles River CD1, males, by gavage, site: lung, lesion: alveolar/bronchiolar carcinoma, dosed 78 weeks, study length 78 weeks): 62.6 mg/kg/day (inactive)
- TD50 (rat, strain Fischer 344, females, in drinking water, site: adrenal gland, lesion: cortical adenoma, dosed 104 weeks, study length 132 weeks): 93.9 mg/kg/day
- TD50 (rat, strain Fischer 344, females, in drinking water, site: liver, lesion: hepatocellular carcinoma, dosed 104 weeks, study length 132 weeks): 433 mg/kg/day
- TD50 (rat, strain Fischer 344, females, in drinking water, site: liver, lesion: hyperplastic nodule, dosed 104 weeks, study length 132 weeks): 388 mg/kg/day
- TD50 (rat, strain Fischer 344, females, in drinking water, site: liver, lesion: several types, types named in the paper, dosed 104 weeks, study length 132 weeks): 188 mg/kg/day
- TD50 (rat, strain Fischer 344, males, in drinking water, site: forestomach, lesion: one or several types, types not named, dosed 117 weeks, study length 132 weeks): 14.4 mg/kg/day
- TD50 (rat, strain Fischer 344, males, in drinking water, site: liver, lesion: hepatocellular carcinoma, dosed 117 weeks, study length 132 weeks): 1320 mg/kg/day
- TD50 (rat, strain Sprague-Dawley, females, by gavage, site: adrenal gland, lesion: pheochromocytoma, dosed 104 weeks, study length 104 weeks): 5.53 mg/kg/day
- TD50 (rat, strain Sprague-Dawley, females, by gavage, site: liver, lesion: hepatocellular adenoma, dosed 104 weeks, study length 104 weeks): 214 mg/kg/day
- TD50 (rat, strain Sprague-Dawley, males, by gavage, site: adrenal gland, lesion: cortical adenoma, dosed 104 weeks, study length 104 weeks): 0.471 mg/kg/day
- TD50 (rat, strain Sprague-Dawley, males, by gavage, site: adrenal gland, lesion: cortical carcinoma, dosed 104 weeks, study length 104 weeks): 57.7 mg/kg/day
- TD50 (rat, strain Sprague-Dawley, males, by gavage, site: liver, lesion: hepatocellular adenoma, dosed 104 weeks, study length 104 weeks): 24.7 mg/kg/day

Structure (SMILES): Nc1ccc(Cl)c(N)c1
- TD50 (mouse, strain B6C3F1, females, in feed, site: any site (literature study), lesion: several types, types named in the paper, dosed 78 weeks, study length 95 weeks): 15400 mg/kg/day
- TD50 (mouse, strain B6C3F1, females, in feed, site: liver, lesion: hepatocellular adenoma + hepatocellular carcinoma + neoplastic nodule, dosed 78 weeks, study length 95 weeks): 1230 mg/kg/day
- TD50 (mouse, strain B6C3F1, females, in feed, site: liver, lesion: hepatocellular adenoma + hepatocellular carcinoma, dosed 78 weeks, study length 95 weeks): 1230 mg/kg/day
- TD50 (mouse, strain B6C3F1, females, in feed, site: liver, lesion: hepatocellular carcinoma, dosed 78 weeks, study length 95 weeks): 1780 mg/kg/day
- TD50 (mouse, strain B6C3F1, males, in feed, site: any site (literature study), lesion: several types, types named in the paper, dosed 78 weeks, study length 94 weeks): 7320 mg/kg/day (inactive)
- TD50 (mouse, strain B6C3F1, males, in feed, site: liver, lesion: hepatocellular adenoma + hepatocellular carcinoma + neoplastic nodule, dosed 78 weeks, study length 94 weeks): 7050 mg/kg/day
- TD50 (rat, strain Fischer 344, females, in feed, site: any site (literature study), lesion: several types, types named in the paper, dosed 78 weeks, study length 104 weeks): 479 mg/kg/day
- TD50 (rat, strain Fischer 344, females, in feed, site: liver, lesion: hepatocellular adenoma + hepatocellular carcinoma + neoplastic nodule, dosed 78 weeks, study length 104 weeks): 2680 mg/kg/day
- TD50 (rat, strain Fischer 344, females, in feed, site: uterus, lesion: endometrial stromal polyp, dosed 78 weeks, study length 104 weeks): 175 mg/kg/day (inactive)
- TD50 (rat, strain Fischer 344, males, in feed, site: adrenal gland, lesion: pheochromocytoma, dosed 78 weeks, study length 104 weeks): 315 mg/kg/day
- TD50 (rat, strain Fischer 344, males, in feed, site: any site (literature study), lesion: several types, types named in the paper, dosed 78 weeks, study length 104 weeks): 422 mg/kg/day
- TD50 (rat, strain Fischer 344, males, in feed, site: liver, lesion: hepatocellular adenoma + hepatocellular carcinoma + neoplastic nodule, dosed 78 weeks, study length 104 weeks): 1570 mg/kg/day

Structure (SMILES): O=S(=O)(O)c1cc(S(=O)(=O)O)c2c(N=Nc3ccccc3)c(O)ccc2c1
- carcinogen call (mouse, strain B6C3F1, females, in feed, site: any site (literature study), lesion: several types, types named in the paper, dosed 103 weeks, study length 104 weeks): negative (inactive)
- carcinogen call (mouse, strain B6C3F1, males, in feed, site: any site (literature study), lesion: several types, types named in the paper, dosed 103 weeks, study length 103 weeks): negative (inactive)
- TD50 (mouse, strain B6C3F1, males, in feed, site: lung, lesion: alveolar/bronchiolar adenoma + alveolar/bronchiolar carcinoma, dosed 103 weeks, study length 103 weeks): 22000 mg/kg/day
- carcinogen call (rat, strain Fischer 344, females, in feed, site: any site (literature study), lesion: several types, types named in the paper, dosed 103 weeks, study length 104 weeks): negative (inactive)
- TD50 (rat, strain Fischer 344, males, in feed, site: any site (literature study), lesion: several types, types named in the paper, dosed 103 weeks, study length 104 weeks): 2710 mg/kg/day
- TD50 (rat, strain Fischer 344, males, in feed, site: liver, lesion: hepatocellular adenoma + hepatocellular carcinoma + neoplastic nodule, dosed 103 weeks, study length 104 weeks): 620 mg/kg/day
- TD50 (rat, strain Fischer 344, males, in feed, site: tunica vaginalis, lesion: mesothelioma, NOS + mesothelioma, malignant, dosed 103 weeks, study length 104 weeks): 915 mg/kg/day (inactive)

Structure (SMILES): Cc1cc(O)c2c(c1O)C(=O)C13C(=C2O)C(=O)C2C(O)C1C1C(O)C3C(=O)C3=C(O)c4c(O)cc(C)c(O)c4C(=O)C321 (stereo unspecified)
- TD50 (mouse, strain ddNi, females, in feed, site: liver, lesion: liver-cell adenoma, dosed 160 weeks, study length 160 weeks): 122 mg/kg/day
- TD50 (mouse, strain ddNi, females, in feed, site: liver, lesion: liver-cell carcinoma, dosed 160 weeks, study length 160 weeks): 248 mg/kg/day
- TD50 (mouse, strain ddNi, females, in feed, site: liver, lesion: several types, types named in the paper, dosed 160 weeks, study length 160 weeks): 79.4 mg/kg/day
- TD50 [1]: 113 mg/kg/day
- carcinogen call [1]: positive
- TD50 (mouse, strain ddNi, males, in feed, site: liver, lesion: hepatoma, dosed 160 weeks, study length 160 weeks): 89.5 mg/kg/day and 74.3 mg/kg/day and 113 mg/kg/day
- TD50 (mouse, strain ddNi, males, in feed, site: liver, lesion: liver-cell adenoma, dosed 160 weeks, study length 160 weeks): 83.7 mg/kg/day and 25.1 mg/kg/day and 231 mg/kg/day
- TD50 (mouse, strain ddNi, males, in feed, site: liver, lesion: liver-cell carcinoma, dosed 160 weeks, study length 160 weeks): 332 mg/kg/day
- TD50 (mouse, strain ddNi, males, in feed, site: liver, lesion: several types, types named in the paper, dosed 160 weeks, study length 160 weeks): 14.8 mg/kg/day

Structure (SMILES): Nc1ccc(N)c(Cl)c1
- TD50 (mouse, strain B6C3F1, females, in feed, site: any site (literature study), lesion: several types, types named in the paper, dosed 96 weeks, study length 104 weeks): 1430 mg/kg/day (inactive)
- TD50 (mouse, strain B6C3F1, females, in feed, site: liver, lesion: hepatocellular adenoma + hepatocellular carcinoma + neoplastic nodule, dosed 96 weeks, study length 104 weeks): 1590 mg/kg/day
- TD50 (mouse, strain B6C3F1, females, in feed, site: lung, lesion: alveolar/bronchiolar adenoma + alveolar/bronchiolar carcinoma, dosed 96 weeks, study length 104 weeks): 3330 mg/kg/day
- TD50 (mouse, strain B6C3F1, males, in feed, site: any site (literature study), lesion: several types, types named in the paper, dosed 95 weeks, study length 104 weeks): 4380 mg/kg/day (inactive)
- TD50 (mouse, strain B6C3F1, males, in feed, site: liver, lesion: hepatocellular adenoma + hepatocellular carcinoma + neoplastic nodule, dosed 95 weeks, study length 104 weeks): 1310 mg/kg/day
- carcinogen call (rat, strain Fischer 344, females, in feed, site: any site (literature study), lesion: several types, types named in the paper, dosed 105 weeks, study length 105 weeks): negative (inactive)
- TD50 (rat, strain Fischer 344, females, in feed, site: liver, lesion: hepatocellular adenoma + hepatocellular carcinoma + neoplastic nodule, dosed 105 weeks, study length 105 weeks): 3600 mg/kg/day
- TD50 (rat, strain Fischer 344, males, in feed, site: any site (literature study), lesion: several types, types named in the paper, dosed 105 weeks, study length 105 weeks): 244 mg/kg/day (inactive)
- TD50 (rat, strain Fischer 344, males, in feed, site: liver, lesion: hepatocellular adenoma + hepatocellular carcinoma + neoplastic nodule, dosed 105 weeks, study length 105 weeks): 665 mg/kg/day

Structure (SMILES): CC1=C[C@H]2[C@@]3(O)[C@H](C)[C@@H](O)[C@]4(O)[C@H]([C@@H]3C=C(CO)C[C@]2(O)C1=O)C4(C)C
- carcinogen call (mouse, strain AKR/J, females, i.p., site: lymphoreticular system, lesion: lymphatic leukemia, dosed 104 weeks, study length 104 weeks): negative (inactive)
- TD50 (mouse, strain AKR/J, males, i.p., site: lymphoreticular system, lesion: lymphatic leukemia, dosed 104 weeks, study length 104 weeks): 8.26 mg/kg/day (inactive)
- carcinogen call (mouse, strain BALB/c, females, i.p., site: lymphoreticular system, lesion: one or several types, types not named, dosed 104 weeks, study length 104 weeks): negative (inactive)
- carcinogen call (mouse, strain BALB/c, males, i.p., site: lymphoreticular system, lesion: one or several types, types not named, dosed 104 weeks, study length 104 weeks): negative (inactive)
- carcinogen call (mouse, strain C3HeB, females, i.p., site: lymphoreticular system, lesion: one or several types, types not named, dosed 104 weeks, study length 104 weeks): negative (inactive)
- carcinogen call (mouse, strain C3HeB, males, i.p., site: lymphoreticular system, lesion: one or several types, types not named, dosed 104 weeks, study length 104 weeks): negative (inactive)
- carcinogen call (mouse, strain C57BL, females, i.p., site: lymphoreticular system, lesion: one or several types, types not named, dosed 104 weeks, study length 104 weeks): negative (inactive)
- TD50 (mouse, strain SJL/J, females, i.p., site: lymphoreticular system, lesion: reticulum-cell sarcoma, type B, dosed 104 weeks, study length 104 weeks): 92.6 mg/kg/day
- TD50 (mouse, strain SWR, females, i.p., site: lymphoreticular system, lesion: lymphatic leukemia, dosed 104 weeks, study length 104 weeks): 2.21 mg/kg/day
